Reference: patent publication US20080096807A1, “Cyclic vasoactive intestinal peptide receptor-2 agonists” (priority 2006, published 2008)
Numbered stars: 1 amine (or outer) side, 2 acyl side, 3 side chain; on linkers, the order of the positions; unused ones are H or OH. Bridge positions count the residues as written; N and C are the ends. Square brackets hold non-standard residues; d marks the D form. Peptide text beside a SMILES is read from it. ξ: configuration not given here. X1 = N=C(N)CNCC[C@H](N[*:1])C(=O)[*:2]; Thr(3ξ) = CC(O)[C@H](N)C(=O)O; Nle = CCCC[C@H](N)C(=O)O

What was measured:
[1] = tested on: LPS-induced lung inflammation in male C57BL/6 mice; assay: LPS-induced lung inflammation in male C57BL/6 mice (BAL neutrophilia); assay type: in vivo; conditions: Dose 0.01%, BAL fluid neutrophilia
Procedure: C57bl/6 mice are pretreated with vehicle or drug prior to an aerosol expose to lipopolysacchride (LPS, 500 μg/ml in sterile saline) for 15-30 minutes. The aerosol is generated by a Pari Ultra neb jet nebulizer, the outlet of which is connected to a small clear plastic chamber [H×W×D, 10.7×25.7×11 cm (4×10×4.5 in)] containing the animals. Bronchoalveolar lavage (BAL) is performed 24 hr later to determine the intensity of cell inflammation. BAL procedure is performed as described below.
Mice are pretreated with vehicle or drug prior to an intranasal administration of lipopolysacchride (0.05-0.3 mg/kg in sterile saline; 50 μl total volume, 25 μl/nostril). Intranasal administration is performed by presenting small droplets of the dosing solution at the nostril using a 25-50 μl eppendorff pipet. BAL is performed 3 to 24 h post LPS challenged as described above to determine the intensity of cell inflammation.
24 h following LPS exposure, animals are anesthetized with pentobarbital (80-100 mg/kg, i.p.), ketamine/xyzaline (80-120 mg/kg/2-4 mg/kg, i.p.) or urethane (1.5-2.4 g/kg, i.p.); and through a small midline neck incision (15-20 mm), the trachea is exposed and cannulated with 20-gauge tubing adapter. Lungs are lavaged with 2×1 ml sterile Hank's balanced salt solution without Ca++ and Mg++(HBSS). Lavage fluid is recovered after 30 sec by gentle aspiration and pooled for each animal. Samples are then centrifuged at 2000 rpm for 10 minutes at 5° C. Supernatant is aspirated, and red blood cells are lysed from the resulting pellet with 0.5 ml distilled water for 30 sec before restoring osmolarity to the remaining cells by the addition of 5 ml of HBSS. Samples are recentrifuged at 2000 rpm for 10 minutes at 5° C. and supernatant aspirated. The resulting pellet is resuspended in 1 ml of HBSS. Total cell number is determined by Trypan Blue (Sigma Chemical, St. Louis, Mo.) exclusion from an aliquot of cell suspension using a hemocytometer or coulter counter. For differential cell counts, an aliquot of the cell suspension is centrifuged in a Cytospin (5 min, 1300 rpm; Shandon Southern Instruments, Sewickley, Pa.) and the slides fixed and stained with a modified Wright's stain (Hema 3 stain kit, Fisher Scientific). Standard morphological criteria is used in classifying at least 300 cells under light microscopy. Data in Table 3 is expressed as BAL cells×10^4/animal for neutrophils and total cells, or percent inhibition of the LPS induced BAL fluid neutrophilia response.

[2] = target: T1, human neutrophil elastase (Homo sapiens, UniProt P08246); assay: Peptide stability to neutrophil elastase (RP HPLC ESI MS); conditions: halftime with human neutrophil elastase 1 to 2 μg/mL in PBS, ambient temperature, normalized to halftime of the reference standard
T1 sequence (P08246 30-247 limits assumed): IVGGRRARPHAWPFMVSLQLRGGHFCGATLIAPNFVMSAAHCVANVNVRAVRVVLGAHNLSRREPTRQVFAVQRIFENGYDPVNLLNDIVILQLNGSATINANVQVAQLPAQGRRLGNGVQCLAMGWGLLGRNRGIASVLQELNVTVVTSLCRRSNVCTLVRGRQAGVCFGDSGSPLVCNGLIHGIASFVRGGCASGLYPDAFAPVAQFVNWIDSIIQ

[3] = target: T2, VPAC2 receptor (Homo sapiens, UniProt P41587); assay: Sup-T1 cAMP agonist assay; assay type: cell-based; conditions: human T-lymphoid cell line Sup-T1 expressing VPAC2 receptor; cAMP EIA; 5 min at room temperature; read-out: Sup-T1 cAMP EC50
T2 construct: The human T-lymphoid cell line Sup-Ti, which expresses the VPAC2 receptor; host or cells: Sup-T1 (Sup-Ti [sic]) human T-lymphoid cell line
T2 sequence (P41587 24-438): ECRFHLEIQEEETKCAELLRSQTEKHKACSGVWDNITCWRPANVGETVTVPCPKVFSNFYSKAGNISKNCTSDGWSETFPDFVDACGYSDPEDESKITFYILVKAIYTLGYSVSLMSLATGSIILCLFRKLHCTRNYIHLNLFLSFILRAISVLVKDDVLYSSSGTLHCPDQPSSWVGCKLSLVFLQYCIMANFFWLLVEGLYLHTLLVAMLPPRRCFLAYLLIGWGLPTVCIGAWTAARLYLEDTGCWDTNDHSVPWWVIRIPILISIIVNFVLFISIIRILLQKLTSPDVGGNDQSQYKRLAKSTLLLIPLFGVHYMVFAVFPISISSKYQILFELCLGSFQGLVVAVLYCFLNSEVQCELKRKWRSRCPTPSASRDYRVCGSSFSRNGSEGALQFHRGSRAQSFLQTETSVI
Procedure: The human T-lymphoid cell line Sup-Ti, which expresses the VPAC2 receptor, was obtained from the American Type Culture Collection (ATCC, CRL-1942) and maintained in growth medium at densities between 0.2 and 2×10^6 cells/ml in a 37° C. CO2 incubator. The growth medium was RPMI 1640 (Invitrogen) supplemented with 25 mM HEPES buffer and 10% fetal bovine serum (Gemini Bioproducts).
To evaluate VPAC2 agonist compound activity, cells in log-phase growth were washed once with growth medium at room temperature and plated into 96-well plates at a density of 4×10^4 cells per well in 150 uL of growth medium. Fifty uL of the compounds to be tested, prepared at appropriate concentrations in growth medium, were then added to designated wells. After 5 min at room temperature, the cells were lysed by adding 25 uL of lysis reagent 1A (cAMP Biotrak EIA system, Amersham Biosciences, RPN225) to each well. The 96-well plates were kept at room temperature for 10 min with shaking and then stored at 4° C. until analysis for cAMP (within 2 hr).
Cyclic AMP levels were determined in 100 uL of each lysate using the cAMP Biotrak Enzymeimmunoassay (EIA) kit according to the manufacture's instructions (Amersham Biosciences, RPN225). The activity of each VPAC2 agonist compound (EC50 value) was estimated by fitting the 7-concentration dose response data to a sigmoidal dose-response equation provided by the GraphPad Prism program (GraphPad Software, Inc.).

Row | Structure (SMILES) | Relative elastase stability [2] | EC50 [3] [µM] | Inhibition of LPS-induced neutrophilia [1]
1 | CCCC[C@H](NC(=O)[C@H](CCC(N)=O)NC(=O)[C@H](CCCCN)NC(=O)[C@H](CCCNC(=N)N)NC(=O)[C@H](CC(C)C)NC(=O)[C@H](CCCCN)NC(=O)[C@@H](NC(=O)[C@H](Cc1ccc(O)cc1)NC(=O)[C@H](CC(N)=O)NC(=O)[C@H](CCC(=O)O)NC(=O)[C@@H](NC(=O)[C@H](Cc1ccccc1)NC(=O)[C@H](CO)NC(=O)[C@H](C)NC(=O)[C@H](CC(=O)O)NC(=O)[C@H](CO)NC(=O)[C@H](Cc1c[nH]cn1)NC(C)=O)C(C)O)C(C)O)C(=O)N[C@@H](CCC(=O)O)C(=O)N[C@@H](C)C(=O)N[C@@H](CCCCN)C(=O)N[C@H]1CCCCNC(=O)C[C@@H](C(=O)N[C@@H](CC(C)C)C(=O)N[C@@H](CCCCN)C(=O)N[C@@H](CCCCN)C(=O)NCC(=O)NCC(=O)N[C@H](C(N)=O)C(C)O)NC(=O)[C@H](CC(N)=O)NC(=O)[C@H](CC(C)C)NC(=O)[C@H](Cc2ccc(O)cc2)NC1=O (stereo partly drawn) [Example 7] (Ac-HSDASF[Thr(3ξ)]ENY[Thr(3ξ)]KLRKQ[Nle]EAKKYLNDLKKGG[Thr(3ξ)]-NH2; lactam 21-25) | 16.4 | 0.632 | ++ (++ >30%)
2 | CCCC[C@H](NC(=O)[C@H](CCCNC(=N)N)NC(=O)[C@H](CCCCN)NC(=O)[C@H](CCCNC(=N)N)NC(=O)[C@H](CC(C)C)NC(=O)[C@H](CCCCN)NC(=O)[C@@H](NC(=O)[C@H](Cc1ccc(O)cc1)NC(=O)[C@H](CC(N)=O)NC(=O)[C@H](CCC(=O)O)NC(=O)[C@@H](NC(=O)[C@H](Cc1ccccc1)NC(=O)[C@H](CO)NC(=O)[C@H](C)NC(=O)[C@H](CC(=O)O)NC(=O)[C@H](C)NC(=O)[C@H](Cc1c[nH]cn1)NC(C)=O)C(C)O)C(C)O)C(=O)N[C@@H](CCC(=O)O)C(=O)N[C@@H](C)C(=O)N[C@@H](CCCCN)C(=O)N[C@H]1CCCCNC(=O)C[C@@H](C(=O)N[C@@H](CC(C)C)C(=O)N[C@@H](CCCCN)C(=O)N[C@@H](CCCCN)C(=O)NCC(=O)NCC(=O)N[C@H](C(N)=O)C(C)O)NC(=O)[C@H](CC(N)=O)NC(=O)[C@H](CC(C)C)NC(=O)[C@H](Cc2ccc(O)cc2)NC1=O (stereo partly drawn) [Example 17] (Ac-HADASF[Thr(3ξ)]ENY[Thr(3ξ)]KLRKR[Nle]EAKKYLNDLKKGG[Thr(3ξ)]-NH2; lactam 21-25) | 4.6 | 0.0233 | + (+ 10-30%)
3 | CCCC[C@H](NC(=O)[C@H](CCCNC(=N)N)NC(=O)[C@H](CCCCN)NC(=O)[C@H](CCCNC(=N)N)NC(=O)[C@H](CC(C)C)NC(=O)[C@H](CCCCN)NC(=O)[C@@H](NC(=O)[C@H](Cc1ccc(O)cc1)NC(=O)[C@H](CC(N)=O)NC(=O)[C@H](CCC(=O)O)NC(=O)[C@@H](NC(=O)[C@H](Cc1ccccc1)NC(=O)[C@H](CO)NC(=O)[C@H](C)NC(=O)[C@H](CC(=O)O)NC(=O)[C@H](CO)NC(=O)[C@H](Cc1c[nH]cn1)NC(C)=O)C(C)O)C(C)O)C(=O)N[C@@H](CCC(=O)O)C(=O)N[C@@H](C)C(=O)N[C@@H](CCCCN)C(=O)N[C@H]1CCCCNC(=O)C[C@@H](C(=O)N[C@@H](CC(C)C)C(=O)N[C@@H](CCCCN)C(=O)N[C@@H](CCCCN)C(=O)NCC(=O)NCC(=O)N[C@H](C(N)=O)C(C)O)NC(=O)[C@H](CC(N)=O)NC(=O)[C@H](CC(C)C)NC(=O)[C@H](Cc2ccc(O)cc2)NC1=O (stereo partly drawn) [Example 15] (Ac-HSDASF[Thr(3ξ)]ENY[Thr(3ξ)]KLRKR[Nle]EAKKYLNDLKKGG[Thr(3ξ)]-NH2; lactam 21-25) | 4.8 | 0.117 | + (+ 10-30%)

The next compounds have a lower EC50 [3] than those just listed; values first:

Row | Relative elastase stability [2] | EC50 [3] [µM] | Structure (SMILES) | Inhibition of LPS-induced neutrophilia [1]
4 | 1.7 | 0.0176 | CCCC[C@H](NC(=O)[C@H](CCNCC(=N)N)NC(=O)[C@H](CCCCN)NC(=O)[C@H](CCCNC(=N)N)NC(=O)[C@H](CC(C)C)NC(=O)[C@H](CCCCN)NC(=O)[C@@H](NC(=O)[C@H](Cc1ccc(O)cc1)NC(=O)[C@H](CC(N)=O)NC(=O)[C@H](CCC(=O)O)NC(=O)[C@@H](NC(=O)[C@H](Cc1ccccc1)NC(=O)[C@H](CO)NC(=O)[C@H](C)NC(=O)[C@H](CC(=O)O)NC(=O)[C@H](CO)NC(=O)[C@H](Cc1c[nH]cn1)NC(C)=O)C(C)O)C(C)O)C(=O)N[C@@H](C)C(=O)N[C@@H](C)C(=O)N[C@@H](CCCCN)C(=O)N[C@H]1CCCCNC(=O)C[C@@H](C(=O)N[C@@H](CC(C)C)C(=O)N[C@@H](CCCCN)C(=O)N[C@@H](CCCCN)C(=O)NCC(=O)NCC(=O)N[C@H](C(N)=O)C(C)O)NC(=O)[C@H](CC(N)=O)NC(=O)[C@H](CC(C)C)NC(=O)[C@H](Cc2ccc(O)cc2)NC1=O (stereo partly drawn) [Example 13] (Ac-HSDASF[Thr(3ξ)]ENY[Thr(3ξ)]KLRK[X1][Nle]AAKKYLNDLKKGG[Thr(3ξ)]-NH2; lactam 21-25) | ++ (++ >30%)
5 | 2.4 | 0.0168 | CCCC[C@H](NC(=O)[C@H](CCC(N)=O)NC(=O)[C@H](CCCCN)NC(=O)[C@H](CCCNC(=N)N)NC(=O)[C@H](CC(C)C)NC(=O)[C@H](CCCCN)NC(=O)[C@@H](NC(=O)[C@H](Cc1ccc(O)cc1)NC(=O)[C@H](CC(N)=O)NC(=O)[C@H](CCC(=O)O)NC(=O)[C@@H](NC(=O)[C@H](Cc1ccccc1)NC(=O)[C@H](CO)NC(=O)[C@H](C)NC(=O)[C@H](CC(=O)O)NC(=O)[C@H](CO)NC(=O)[C@H](Cc1c[nH]cn1)NC(C)=O)C(C)O)C(C)O)C(=O)N[C@@H](C)C(=O)N[C@@H](C)C(=O)N[C@@H](CCCCN)C(=O)N[C@H]1CCCCNC(=O)C[C@@H](C(=O)N[C@@H](CC(C)C)C(=O)N[C@@H](CC(C)C)C(=O)N[C@@H](CC(N)=O)C(=O)NCC(=O)NCC(=O)N[C@H](C(N)=O)C(C)O)NC(=O)[C@H](CC(N)=O)NC(=O)[C@H](CC(C)C)NC(=O)[C@H](Cc2ccc(O)cc2)NC1=O (stereo partly drawn) [Example 11] (Ac-HSDASF[Thr(3ξ)]ENY[Thr(3ξ)]KLRKQ[Nle]AAKKYLNDLLNGG[Thr(3ξ)]-NH2; lactam 21-25) | ++ (++ >30%)
